Test results published in US7445765B2, “Radiopharmaceutical for diagnostic imaging containing a technetium-99m nitride heterocomplex” (Nihon Medi-Physics Co., Ltd., priority 2000, dated 2008).

Columns and labels:
[1] = Biodistribution of the 99mTc(N) heterocomplexes in rats (organ uptake, heart accumulation, heart/lung and heart/liver ratios); format: in vivo, female Sprague-Dawley rats
Summary of the method: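 Female Sprague-Dawley rats (200–250 g, n=3), ketamine/xylazine anaesthesia, got 300–370 kBq of each purified heterocomplex in pH 7.4 phosphate buffer (10% ethanol) via the jugular vein. They were killed at several post-injection times. Heart blood and washed, weighed organs were gamma-counted, taking whole blood as 6.5% of body weight.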

[2] = Stability: ligand exchange reaction with cysteine or glutathione; format: physicochemical; details: phosphate buffer pH 7.4, 37° C., up to 2 hours, TLC
Method: The stability of the ^99mTc(N) heterocomplexes obtained using PNP3 as a bisphosphinoamine compound in Example 1 was confirmed by ligand exchange reaction with cysteine or glutathione.
250.0 μL of phosphate buffer solution (0.20 M, pH=7.4), 100 μL of water and 100 μL of each of the ^99mTc(N) heterocomplexes purified were mixed with 50 μL of each of cysteine solutions having different concentrations of 10 mM and 1.0 mM, and the resulting mixture was placed in a polypropylene test tube and incubated in a thermostat at 37° C. A blank solution was obtained by mixing an equal volume of water without addition of cysteine. Aliquots of the resulting solutions were withdrawn at 15 min, 30 min, 60 min and 2 hours after the start of the incubation, and analyzed by TLC. The same experiment as above was carried out except for using glutathione in place of cysteine. All the ^99mTc(N) heterocomplex samples were found stable against transchelation by cystein or glutathione.

[3] = Measurement of Log k′ (partition ratio) by HPLC, PNP3 heterocomplexes; format: physicochemical; details: HPLC C18, methanol/phosphate buffer (0.02M, pH 7.4), 1.0 mL/min; extrapolated to 0% organic solvent
Method: For the various ^99mTc(N) heterocomplexes synthesized using PNP3 as a bisphosphinoamine compound in Example 1, Log k′ values were determined at various compositions of a mobile phase for HPLC. As the mobile phase, mixtures of methanol and phosphate buffer (0.02M, pH=7.4) were used at a flow rate of 1.0 mL/min. For each sample, the retention time was measured at a minimum of three different methanol concentrations in the mobile phase. The Log k′ values at 0% organic solvent (Log k′0) were extrapolated from the linear part of the curve Log k′=a+bC, where C is the methanol concentration, and Log k′ is Log (tR-to)/to wherein tR is HPLC retension time (min). The column void time (t0) was regarded as being equal to the elution time of pertechnetic acid.

- Biodistribution in rats: Adrenal glands ([1]; 0 min post injection): 1.65 ± 0.22 % ID/g
- Biodistribution in rats: Blood ([1]; 0 min post injection): 1.36 ± 0.02 % ID/g
- Biodistribution in rats: Brain ([1]; 0 min post injection): 0.20 ± 0.02 % ID/g
- Biodistribution in rats: Heart ([1]; 0 min post injection): 3.08 ± 0.31 % ID/g
- Biodistribution in rats: Intestine ([1]; 0 min post injection): 3.25 ± 0.60 % ID/g
- Biodistribution in rats: Kidneys ([1]; 0 min post injection): 6.36 ± 0.13 % ID/g
- Biodistribution in rats: Liver ([1]; 0 min post injection): 3.48 ± 0.24 % ID/g
- Biodistribution in rats: Lungs ([1]; 0 min post injection): 1.45 ± 0.04 % ID/g
- Biodistribution in rats: Muscle ([1]; 0 min post injection): 0.27 ± 0.02 % ID/g
- Biodistribution in rats: Spleen ([1]; 0 min post injection): 1.23 ± 0.01 % ID/g
- Biodistribution in rats: Submaxillary glands ([1]; 0 min post injection): 2.27 ± 0.20 % ID/g
- Biodistribution in rats: Adrenal glands ([1]; 2 min post injection): 0.98 ± 0.12 % ID/g
- Biodistribution in rats: Blood ([1]; 2 min post injection): 0.30 ± 0.09 % ID/g
- Biodistribution in rats: Brain ([1]; 2 min post injection): 0.02 ± 0.00 % ID/g
- Biodistribution in rats: Heart ([1]; 2 min post injection): 2.06 ± 0.13 % ID/g
- Biodistribution in rats: Intestine ([1]; 2 min post injection): 4.30 ± 1.74 % ID/g
- Biodistribution in rats: Kidneys ([1]; 2 min post injection): 8.21 ± 0.62 % ID/g
- Biodistribution in rats: Liver ([1]; 2 min post injection): 3.71 ± 0.36 % ID/g
- Biodistribution in rats: Lungs ([1]; 2 min post injection): 0.65 ± 0.06 % ID/g
- Biodistribution in rats: Muscle ([1]; 2 min post injection): 0.25 ± 0.04 % ID/g
- Biodistribution in rats: Spleen ([1]; 2 min post injection): 0.51 ± 0.04 % ID/g
- Biodistribution in rats: Submaxillary glands ([1]; 2 min post injection): 1.22 ± 0.11 % ID/g
- Biodistribution in rats: Adrenal glands ([1]; 10 min post injection): 1.49 ± 0.82 % ID/g
- Biodistribution in rats: Blood ([1]; 10 min post injection): 0.21 ± 0.00 % ID/g
- Biodistribution in rats: Brain ([1]; 10 min post injection): 0.01 ± 0.00 % ID/g
- Biodistribution in rats: Heart ([1]; 10 min post injection): 2.37 ± 0.33 % ID/g
- Biodistribution in rats: Intestine ([1]; 10 min post injection): 4.36 ± 2.28 % ID/g
- Biodistribution in rats: Kidneys ([1]; 10 min post injection): 6.82 ± 3.62 % ID/g
- Biodistribution in rats: Liver ([1]; 10 min post injection): 3.49 ± 0.09 % ID/g
- Biodistribution in rats: Lungs ([1]; 10 min post injection): 0.67 ± 0.23 % ID/g
- Biodistribution in rats: Muscle ([1]; 10 min post injection): 0.29 ± 0.08 % ID/g
- Biodistribution in rats: Spleen ([1]; 10 min post injection): 0.57 ± 0.22 % ID/g
- Biodistribution in rats: Submaxillary glands ([1]; 10 min post injection): 1.70 ± 0.60 % ID/g
- Biodistribution in rats: Adrenal glands ([1]; 20 min post injection): 1.46 ± 0.15 % ID/g
- Biodistribution in rats: Blood ([1]; 20 min post injection): 0.08 ± 0.02 % ID/g
- Biodistribution in rats: Brain ([1]; 20 min post injection): 0.01 ± 0.00 % ID/g
- Biodistribution in rats: Heart ([1]; 20 min post injection): 2.49 ± 0.31 % ID/g
- Biodistribution in rats: Intestine ([1]; 20 min post injection): 14.47 ± 4.75 % ID/g
- Biodistribution in rats: Kidneys ([1]; 20 min post injection): 5.63 ± 2.05 % ID/g
- Biodistribution in rats: Liver ([1]; 20 min post injection): 1.86 ± 0.47 % ID/g
- Biodistribution in rats: Lungs ([1]; 20 min post injection): 0.43 ± 0.05 % ID/g
- Biodistribution in rats: Muscle ([1]; 20 min post injection): 0.39 ± 0.12 % ID/g
- Biodistribution in rats: Spleen ([1]; 20 min post injection): 0.38 ± 0.04 % ID/g
- Biodistribution in rats: Submaxillary glands ([1]; 20 min post injection): 1.38 ± 0.07 % ID/g
- Biodistribution in rats: Adrenal glands ([1]; 30 min post injection): 1.31 ± 0.19 % ID/g
- Biodistribution in rats: Blood ([1]; 30 min post injection): 0.04 ± 0.00 % ID/g
- Biodistribution in rats: Brain ([1]; 30 min post injection): 0.01 ± 0.00 % ID/g
- Biodistribution in rats: Heart ([1]; 30 min post injection): 2.57 ± 0.06 % ID/g
- Biodistribution in rats: Intestine ([1]; 30 min post injection): 11.78 ± 1.78 % ID/g
- Biodistribution in rats: Kidneys ([1]; 30 min post injection): 4.88 ± 0.56 % ID/g
- Biodistribution in rats: Liver ([1]; 30 min post injection): 1.30 ± 0.71 % ID/g
- Biodistribution in rats: Lungs ([1]; 30 min post injection): 0.41 ± 0.04 % ID/g
- Biodistribution in rats: Muscle ([1]; 30 min post injection): 0.32 ± 0.08 % ID/g
- Biodistribution in rats: Spleen ([1]; 30 min post injection): 0.37 ± 0.00 % ID/g
- Biodistribution in rats: Submaxillary glands ([1]; 30 min post injection): 1.53 ± 0.17 % ID/g
- Biodistribution in rats: Adrenal glands ([1]; 60 min post injection): 1.17 ± 0.17 % ID/g
- Biodistribution in rats: Blood ([1]; 60 min post injection): 0.02 ± 0.01 % ID/g
- Biodistribution in rats: Brain ([1]; 60 min post injection): 0.01 ± 0.00 % ID/g
- Biodistribution in rats: Heart ([1]; 60 min post injection): 2.26 ± 0.60 % ID/g
- Biodistribution in rats: Intestine ([1]; 60 min post injection): 11.05 ± 5.05 % ID/g
- Biodistribution in rats: Kidneys ([1]; 60 min post injection): 3.44 ± 0.76 % ID/g
- Biodistribution in rats: Liver ([1]; 60 min post injection): 0.42 ± 0.23 % ID/g
- Biodistribution in rats: Lungs ([1]; 60 min post injection): 0.27 ± 0.09 % ID/g
- Biodistribution in rats: Muscle ([1]; 60 min post injection): 0.27 ± 0.04 % ID/g
- Biodistribution in rats: Spleen ([1]; 60 min post injection): 0.18 ± 0.10 % ID/g
- Biodistribution in rats: Submaxillary glands ([1]; 60 min post injection): 1.33 ± 0.46 % ID/g
- Biodistribution in rats: Adrenal glands ([1]; 120 min post injection): 1.14 ± 0.15 % ID/g
- Biodistribution in rats: Blood ([1]; 120 min post injection): 0.01 ± 0.00 % ID/g
- Biodistribution in rats: Brain ([1]; 120 min post injection): 0.01 ± 0.00 % ID/g
- Biodistribution in rats: Heart ([1]; 120 min post injection): 2.45 ± 0.41 % ID/g
- Biodistribution in rats: Intestine ([1]; 120 min post injection): 16.10 ± 2.10 % ID/g
- Biodistribution in rats: Kidneys ([1]; 120 min post injection): 3.43 ± 0.38 % ID/g
- Biodistribution in rats: Liver ([1]; 120 min post injection): 0.16 ± 0.04 % ID/g
- Biodistribution in rats: Lungs ([1]; 120 min post injection): 0.20 ± 0.04 % ID/g
- Biodistribution in rats: Muscle ([1]; 120 min post injection): 0.36 ± 0.12 % ID/g
- Biodistribution in rats: Spleen ([1]; 120 min post injection): 0.14 ± 0.03 % ID/g
- Biodistribution in rats: Submaxillary glands ([1]; 120 min post injection): 1.36 ± 0.14 % ID/g
- Stability [2]: Stable
- Log k′ (partition ratio) [3]: 3.18
SMILES: COCCC[P]1(CCCOC)CCN(CCOC)CC[P](CCCOC)(CCCOC)[99Tc+]12(#[N])[S]C(N(CCOC)CCOC)=[S]2 [[^99mTc(N) (PNP3) (DPODC)]^+]
